For twelve compounds, IC50 results are on record in patent publication US8604024B2, “Compounds for the reduction of beta-amyloid production” (Bristol-Myers Squibb Company, priority 2011, dated 2013).

Counter-ions that a name gives are not always drawn. Bounds are passed on as bounds.

The assay concerns Aβ1-42 production in H4 cells stably transfected with APP751 containing the Swedish mutation. The assay is described as follows: Cellular assay for inhibition of Aβ1-42 production (H4 APP751 SWE clone 8.20). In kind it is cell-based. The note with it: 19 h, H4 APP751 SWE clone 8.20 cells, 19 h incubation; read-out: Aβ42 cellular IC50. The procedure:
Cellular Assays for Inhibition of Aβ1-40 and Aβ1-42 Production
H4 cells stably transfected with APP751 containing the Swedish mutation (H4 APP751 SWE clone 8.20, developed at BMS) were maintained in log phase through twice weekly passage at a 1:20 split. […] Following incubation for 19 h in 5% CO2 at 37° C., plates were briefly centrifuged (1000 rpm, 5 min). A 10 μl aliquot from each well was transferred to a second assay plate (Costar 3709) for Aβ40 measurements. Antibody cocktails were freshly prepared by dilution into 40 mM Tris-HCl (pH 7.4) with 0.2% BSA and added to assay plates. For Aβ42 measurements, antibodies specific for the Aβ42 neoepitope (565, developed at BMS; conjugated to the Wallac reagent (Perkin Elmer)) and the N-terminal sequence of Aβ peptide (26D6, developed at SIBIA; conjugated to APC (Perkin Elmer)) were mixed and 20 μl of the mixture was added to each well of the incubated cell plate yielding a final concentration of 0.8 ng/well 565 and 75 ng/well 26D6. For the Aβ40 measurements, antibodies specific for the Aβ40 neoepitope (TSD, developed at BMS; conjugated to the Wallac reagent (Perkin Elmer)) and 26D6 as described above were mixed and 20 μl of the mixture was added to the 10 μl aliquots which had been removed previously from the cell plate yielding a final concentration of 1.6 ng/well TSD and 17.5 ng/well 26D6. Assay plates containing antibodies were sealed with aluminum foil and incubated overnight at 4° C. Signal was determined using a Viewlux counter (Perkin Elmer) and IC50 values determined using curve fitting in CurveMaster (Excel Fit based).
Take `C[C@]12N=C(N)SC[C@H]1CCc1ccc(NC(=O)c3ccc(F)cn3)cc12` (relative stereo) [Example 9, rel-N-((4aS,10bS)-2-amino-10b-methyl-4a,5,6,10b-tetrahydro-4H-naphtho[1,2-d][1,3]thiazin-9-yl)-5-fluoropicolinamide, 2,2,2-trifluoroacetate]: the IC50 turned out to be 2.1 µM. As to `C[C@@]12N=C(N)SC[C@@H]1CCCc1ccc(NC(=O)c3ccc(C#N)cn3)cc12` [Example 44a, N-((4aR,11bR)-2-Amino-11b-methyl-4,4a,5,6,7,11b-hexahydrobenzo[6,7]cyclohepta[1,2-d][1,3]thiazin-10-yl)-5-cyanopicolinamide], the IC50 was 6.8 µM. The value for `NC1=N[C@@H]2c3cc(-c4cncnc4)cc(F)c3OCC[C@@H]2CS1` (relative stereo) [Example 4, rel-(4aS,11bS)-8-fluoro-10-pyrimidin-5-yl-4a,5,6,11b-tetrahydro-4H-7-oxa-3-thia-1-aza-dibenzo[a,c]cyclohepten-2-ylamine] was over 30 µM. `C[C@]12N=C(N)SC[C@H]1CCOc1ccc(-c3c[nH]c4ccccc34)cc12` (relative stereo) [Example 30, rel-(4aS,11bS)-10-(1H-indol-3-yl)-11b-methyl-4a,5,6,11b-tetrahydro-4H-benzo[2,3]oxepino[4,5-d][1,3]thiazin-2-amine, 2,2,2-trifluoroacetate salt]: the IC50 was found to be 16 µM. The value for `C[C@@]12N=C(N)SC[C@@H]1CCOc1ccc(NC(=O)c3ncc(Cl)cc3Cl)cc12` [Example 34b, N-((4aR,11bR)-2-Amino-11b-methyl-4a,5,6,11b-tetrahydro-4H-benzo[2,3]oxepino[4,5-d][1,3]thiazin-10-yl)-3,5-dichloropicolinamide] was 0.79 µM. The value for `COc1cncc(-c2ccc3c(c2)[C@@]2(C)N=C(N)SC[C@H]2CCC3)c1` (relative stereo) [Example 11, rel-(4aS,11bS)-10-(5-methoxypyridin-3-yl)-11b-methyl-4,4a,5,6,7,11b-hexahydrobenzo[6,7]cyclohepta[1,2-d][1,3]thiazin-2-amine, bis(2,2,2-trifluoroacetate)] was 3.4 µM.

On to `C[C@]12N=C(N)SC[C@H]1CCCc1ccc(-c3cncc(Cl)c3)cc12` (relative stereo) [Example 13, rel-(4aS,11bS)-10-(5-Chloropyridin-3-yl)-11b-methyl-4,4a,5,6,7,11b-hexahydrobenzo[6,7]cyclohepta[1,2-d][1,3]thiazin-2-amine, bis(2,2,2-trifluoroacetate)], for which the IC50 was 3.1 µM. `Cc1ncc(-c2ccc3c(c2)[C@@]2(C)N=C(N)SC[C@H]2CCO3)s1` [Example 26b, (4aS,11bS)-11b-Methyl-10-(2-methylthiazol-5-yl)-4a,5,6,11b-tetrahydro-4H-benzo[2,3]oxepino[4,5-d][1,3]thiazin-2-amine]: the IC50 came to 3.2 µM. For `C[C@]12N=C(N)SC[C@H]1CCCc1ccc(Br)cc12` (relative stereo) [Example 16], the IC50 was 2.5 µM. The value for `COc1cccnc1Nc1ccc2c(c1)[C@@]1(C)N=C(N)SC[C@H]1CCO2` (relative stereo) [Example 38, rel-(4aS,11bS)—N10-(3-Methoxypyridin-2-yl)-11b-methyl-4a,5,6,11b-tetrahydro-4H-benzo[2,3]oxepino[4,5-d][1,3]thiazine-2,10-diamine, bis(2,2,2-trifluoroacetate)] was 1.3 µM; that for `C[C@@]12N=C(N)SC[C@@H]1CCOc1ccc(NC(=O)c3ccc(F)cn3)cc12` [Example 36b, N-((4aR,11bR)-2-Amino-11b-methyl-4a,5,6,11b-tetrahydro-4H-benzo[2,3]oxepino[4,5-d][1,3]thiazin-10-yl)-5-fluoropicolinamide] was 10 µM. Regarding `C[C@]12N=C(N)SC[C@H]1CCOc1ccc(-n3cccn3)cc12` (relative stereo) [Example 32, rel-(4aS,11bS)-11b-Methyl-10-(1H-pyrazol-1-yl)-4a,5,6,11b-tetrahydro-4H-benzo[2,3]oxepino[4,5-d][1,3]thiazin-2-amine, 2,2,2-trifluoroacetate], the IC50 was determined as 11 µM.
